Legend:
Type in all cases: cell-based, human
MRC5 cells [1] = experiment: SA-β-gal activity staining in young and old MRC5 cells; settings: aged MRC5 cells; Ara-C 10 μM, 24 h; FIG. 6F
Description: (§1) Ara-C, bafilomycin A1 and rapamycin were from Sigma-Aldrich (St. Louis, Mo.); SA β-gal Staining Kit was from Cell Signaling (Danvers, Mass.); TUNEL Apo-Green detection reaction mixture was from Biomake (Houston, Tex.).

MRC5 cells [2] = experiment: TUNEL assay detecting DNA fragmentation (nicked DNA) in young and old MRC5 cells; settings: Ara-C 10 μM, 24 hr, FIG. 1B
Description: as §1

MRC5 cells [3] = experiment: Immunofluorescence anti-dsDNA staining of nuclear and cytosolic DNA in young and old MRC5 cells; settings: 24 hr
Method: Cells were cultured in Lab-Tek II 8-well chamber slides, fixed with 4% PFA (10 min), permeabilized with 0.5% Triton X-100 (5 min), then blocked and stained with antibodies against: dsDNA (Santa Cruz, 1:500), 7H2AX, NUP98, pTBK1 (both Cell Signaling, 1:200), LC3 (Novus Biologicals, 1:200) or biotin-LAMP1 (BioLegend, 1:200), followed by fluorescent secondary antibodies (45 min). Methanol fixation was used for anti-pIRF3 (Cell Signaling, 1:200) staining.
Nuclear and cytosolic DNA signals from 5 of 10× or 20× images (˜50-200 cells per image) were quantified using Fiji. Region of interest (ROI) was defined in each image and threshold set to measure fluorescence above background. Nuclear ROI was defined by DAPI staining and its intensity subtracted from total fluorescence to determine cytoplasmic signal. Quantitative fluorescence was presented as integrated density per cell with cell number determined by particle count of DAPI.

MRC5 cells [4] = experiment: RT-qPCR expression of IFNI-inducible, inflammatory and cell-cycle genes in young and old cells; settings: old MRC5 cells
Method: 0.25-1 μg of total RNA was reverse-transcribed with High Capacity cDNA Reverse Transcription kit (Applied Biosystems). Quantitative PCR was then performed using LightCyler® 480 SYBR Master I reagents (Roche) on LightCyler® 96 instrument. Transcript levels were normalized to B2M or GAPDH. Primer pairs used are listed below.

[5] = bafilomycin 20 nM, 8 hr, FIG. 2F

Nc1ccn([C@@H]2O[C@H](CO)[C@@H](O)[C@@H]2O)c(=O)n1 [Ara-C, cytarabine]
percentage of SA-β-gal+ cells (MRC5 cells [1]): further increased
nicked DNA (TUNEL staining) in old cells (MRC5 cells [2]): more intense
nuclear DNA in old cells (anti-dsDNA IF) (MRC5 cells [3]; old MRC5 cells, Ara-C 10 μM, FIG. 1C): more nuclear DNA
extranuclear DNA in young cells (anti-dsDNA IF) (MRC5 cells [3]; young MRC5 cells, Ara-C 10 μM, FIG. 1C): more extranuclear DNA
CXCL10 expression (RT-qPCR) (MRC5 cells [4]; Ara-C 10 μM, 24 hr, FIG. 2A): further increased
IL-6 expression (RT-qPCR) (MRC5 cells [4]; Ara-C 10 μM, 24 hr, FIG. 2A): further increased
MX1 expression (RT-qPCR) (MRC5 cells [4]; Ara-C 10 μM, 24 hr, FIG. 2A): further increased

CO/C1=C\C(C)=C\[C@@H](C)[C@@H](O)[C@@H](C)C/C(C)=C/C=C/[C@H](OC)[C@@H]([C@@H](C)[C@@H](O)[C@H](C)[C@@]2(O)C[C@@H](O)[C@H](C)[C@@H](C(C)C)O2)OC1=O [bafilomycin A1]
CXCL10 expression (RT-qPCR) (MRC5 cells [4]; [5]): increased levels
MX1 expression (RT-qPCR) (MRC5 cells [4]; [5]): increased levels

CCC(=C/[C@H](C)C/C=C/C(C)=C/[C@@H](C)C(=O)[C@@H](C)[C@H](O)[C@@H](C)C/C(C)=C/C(=O)O)/C=C/[C@@H]1OC(=O)C=C[C@@H]1C [leptomycin B]
dsDNA staining in nuclei (anti-dsDNA IF) (MRC5 cells [3]; LMB-treated cells, 20 nM, FIG. 1D): some increase
cytosolic DNA in old cells (anti-dsDNA IF) (MRC5 cells [3]; old MRC5 cells, LMB 20 nM, FIG. 1D): dramatic reduction
